Assay: In vivo dynamic NIR fluorescence imaging of ICG distribution, clearance and GI transit
Parameters: species or system mice
Protocol: Mice were chosen because part of the study involved opening the peritoneal cavity and removing organs to provide detailed information about the method and its abilities. Therefore, the subjects of the study were Female C57BL6 mice (4-6 wk old; Charles River, Wilmington, Mass., USA) that were housed and maintained in a pathogen-free mouse facility accredited by the American Association for Laboratory Animal Care. All studies were performed in accordance with the guidelines of the Institutional Animal Care and Use Committee. Animal experiments were approved by University of Texas Health Science Center Institutional Animal Care and Usage Committee in accordance with NIH guidelines.
In order to carry out in vivo dynamic NIR imaging of GI Motility, the mice were anesthetized with isofluorane and maintained at 37° C. on a warming pad. A volume of 10 μl and 50 ul of 645 μM of IC-Green (Akorn, Inc. Buffalo Grove, Ill., USA) dissolved in mixture of distilled water and 0.9% Sodium Chloride in a volume ratio of 1:9 was injected intradermally and intravenously, respectively.
For intravenous injection of ICG, a catheter was placed in the tail vein of anesthetized mice to facilitate the subsequent delivery of the fluorescent dye. Dynamic fluorescence images were acquired for a period of approximately 6 min immediately before and up to 24 hrs after intravenous injection using a custom-built NIR fluorescence imaging system, the basics of which are presented in FIG. 6 and has been described elsewhere (for example U.S. Pat. Nos. 8,084,753; 7,875,260; 7,865,230; 7,599,732; 7,328,059; 7,268,873; 7,187,441; 7,054,002; 6,930,777; 6,771,370; 5,818,583; 5,865,754 and Kwon and Sevick-Muraca, Lymphat Res Biol 5, 219-231, 2007; Kwon and Sevick-Muraca, J Immunol Methods 360, 167-172, 2010). Anesthetized mice were uniformly illuminated by 785 nm light from a laser diode and the emitted fluorescence was collected using an Electron Multiplying Charge Coupled Device (EMCCD) camera with a holographic filter and a bandpass filter placed prior to a 28 mm lens. Image acquisition with the camera exposure time of 100 ms for fluorescence and white light imaging was accomplished by V++ software. The abdominal skin temperature was monitored for temperature changes during dynamic fluorescence imaging using an infrared thermometer but no temperature changes were observed. Because it was possible that the non-invasive imaging of the intestines may not distinguish the GI lumen from blood and lymphatic vessels, necropsy of the mouse with exposure of the abdomen was performed at 1 hr post injection (p.i.) and the GI tract was removed and laid out on a black paper for intravital imaging.
The data obtained were analyzed with a custom Matlab (The MathWorks, Inc., Natick, Mass., USA) program and ImageJ (National Institutes of Health, Bethesda, Md., USA). Fixed regions of interest (ROIs) from equivalent areas were selected along the length of the fluorescent intestine. An average fluorescent intensity within each ROI was plotted as a function of imaging time and/or length of the intestine. A three-dimensional plot of fluorescent intensity as a function of time and distance was generated and used as a spatio-temporal map to assess the propagation velocity and the frequency of the propagation along the intestine. No corrections were made for respiratory movements in the construction of the three-dimensional spatio-temporal maps. The packet of fluorescent contents is represented by the peak in fluorescence intensity which propagates along the intestine with time. Two ROIs were identified, from which the distance and time information was extracted to measure the propagation velocity. In this study, peristalsis was defined as aboral propagation of contraction waves along the intestine.

[1] = 1 hr post injection, abdomen exposed (FIG. 4: intravenous)

fluorescence in the cecum [1]: weak
fluorescence throughout the small intestine [1]: strong but non-uniform
earliest detection of fluorescent signal in the cecum (after intradermal injection, also observed at 24 hr post injection): 1 h
time fluorescent vessels could be visualized (after intravenous administration): up to 2 min
distribution of the ICG throughout the mouse (following intravenous injection): within seconds
fluorescent signal in the liver (injected intravenously, 1 h post injection): greatly reduced
fluorescence in the liver (and gallbladder) (intradermal administration, 1 h post injection): still high
fluorescent signal arising from the stomach (post injection, all times): absent at all times
SMILES: CC1(C)C(/C=C/C=C/C=C/C=C2\N(CCCCS(=O)(=O)O)c3ccc4ccccc4c3C2(C)C)=[N+](CCCCS(=O)(=O)[O-])c2ccc3ccccc3c21 [ICG, indocyanine green]
source of fluorescent signal in dissected small intestine (GI tract removed 1 hr post injection, contents removed): does not arise from the intestinal tissues, but rather from its contents

Source: patent publication US20130216482A1, “METHODS AND COMPOSITIONS FOR NON-INVASIVE, DYNAMIC IMAGING OF INTESTINAL MOTILITY” (The Board of Regents of the University of Texas System, priority 2012, published 2013)
